Tests used:
Plasmodium falciparum [1] = assay: Antiplasmodial activity against chloroquine-sensitive Plasmodium falciparum 3D7 incubated for 72 hrs by DAPI-staining based imaging analysis; format: functional, organism-based; conditions: 3D7, 72 h
HEK293 [2] = assay: Cytotoxicity against HEK293 cells incubated for 72 hrs by resazurin dye based assay; format: cell-based; conditions: Homo sapiens, HEK293, 72 h
HEK293 [3] = assay: Cytotoxicity against HEK293 cells at 40 uM incubated for 72 hrs by resazurin dye based assay relative to control; format: cell-based; conditions: human, hek293, 72 h
Plasmodium falciparum [4] = assay: Antiplasmodial activity against Plasmodium falciparum K1; format: functional, organism-based
[5] = Stability of compound; format: physicochemical

Structure (SMILES) | IC50 (Plasmodium falciparum [1]) | IC50 (Plasmodium falciparum [4]) | IC50 (HEK293 [2]) | also measured
CCc1nccc2c1[nH]c1ccccc12 | 18 µM | – | > 40 µM | Activity (HEK293 [3]): 35%
CCN(CC)CCCNc1nccc2c1[nH]c1ccccc12 | – | 1 to 18 µM | – | –
c1ccc2c(c1)[nH]c1c([C@H]3CC[C@@H]3c3nccc4c3[nH]c3ccccc34)nccc12 | > 40 µM | – | > 40 µM | Activity (HEK293 [3]): 29%
CN(C)CCc1nccc2c1[nH]c1ccccc12 | – | – | – | Stability [5]: Unstable
CCN(CC)CCCC(C)Nc1nccc2c1[nH]c1ccccc12 (stereo not drawn) | – | 1 to 18 µM | – | –
C[C@H]1[C@H](OC(=O)CCC(=O)O)O[C@@H]2O[C@@]3(C)CC[C@H]4[C@H](C)CC[C@@H]1[C@@]24OO3 [ARTESUNATE] | 0.0003 µM | – | – | –
CCN(CC)CCCC(C)Nc1ccnc2cc(Cl)ccc12 (stereo not drawn) [CHLOROQUINE] | – | – | > 40 µM | Activity (HEK293 [3]): 40%
CCc1ncc(S(C)(=O)=O)c2c1[nH]c1ccccc12 | 21 µM | – | > 40 µM | Activity (HEK293 [3]): 17%
c1ccc2c(c1)[nH]c1c([C@H]3CC[C@H]3c3nccc4c3[nH]c3ccccc34)nccc12 | 10 µM | – | 10 µM | –

Now from value to molecule, other results behind:

IC50 (Plasmodium falciparum [1]) | IC50 (Plasmodium falciparum [4]) | Structure (SMILES) | IC50 (HEK293 [2]) | also measured
12 µM | – | O=S(=O)(O)CCc1nccc2c1[nH]c1ccccc12 | > 40 µM | Activity (HEK293 [3]): 30%
– | 1 to 18 µM | OCCNc1nccc2c1[nH]c1ccccc12 | – | –
– | 1 to 18 µM | c1ccc2c(c1)[nH]c1c(N3CCCCC3)nccc12 | – | –
– | 1 to 18 µM | c1ccc2c(c1)[nH]c1c(N3CCC(N4CCCCC4)CC3)nccc12 | – | –
– | 1 to 18 µM | CN(C)CCCNc1nccc2c1[nH]c1ccccc12 | – | –
– | 1 to 18 µM | c1ccc2c(c1)[nH]c1c(N3CCC(N4CCCCCC4)CC3)nccc12 | – | –
– | 1 to 18 µM | c1ccc2c(c1)[nH]c1c(N3CCC(N4CCCC4)CC3)nccc12 | – | –
– | 1 to 18 µM | OC1CCCN(c2nccc3c2[nH]c2ccccc23)C1 (stereo not drawn) | – | –
– | 1 to 18 µM | c1ccc2c(c1)[nH]c1c(N3CCOCC3)nccc12 | – | –
14 µM | – | OCC(O)c1nccc2c1[nH]c1ccccc12 (stereo not drawn) | > 40 µM | Activity (HEK293 [3]): 37%
– | 1 to 18 µM | CN1CCN(c2nccc3c2[nH]c2ccccc23)CC1 | – | –
– | 1 to 18 µM | CCN(CC)C1CCN(c2nccc3c2[nH]c2ccccc23)CC1 | – | –
